The values below come from patent publication US20240299595A1, “CANCER THERANOSTIC COMPOSITIONS COMPRISING BIGUANIDE COMPLEXES OF GROUP 7 TRANSITION METALS AND USES THEREOF” (BOARD OF REGENTS, THE UNIVERSITY OF TEXAS SYSTEM, priority 2021, published 2024).

Series [1] deals with PDAC cells. The series is described as follows: Seahorse mito-stress test (oxygen consumption rate). The class given is cell-based. Particulars: 4-hour treatments, Seahorse XF24e.
The subject of series [2] is PDAC cells. In words: DCFDA cellular ROS detection assay. Type of series: cell-based. Particulars: for level of reactive oxygen species (ROS): DCFDA assay, FIG. 9B. As to the method:
Decreased fluorescence intensity measured at Ex/Em 485/535 nm indicated decreased level of ROS. Data are expressed as mean±SD (n=4). ***p<0.001 compared to vehicle (DMSO) control.
The production of intracellular reactive oxygen species (ROS) after treatments with Re-Phen and phenformin in PDAC cells was also measured (FIG. 16). DCFDA Cellular ROS Detection AssayKit (Abcam, Cambridge, MA) was used to measure Intracellular reactive oxygen species (ROS). Briefly, after seeded into 96-well plates at a cell density of 2.5×10^4 cells per well overnight, cell monolayers were washed and incubated for 45 min at 37° C. in the dark in the presence of 25 μM DCFDA diluted in serum-free adhesion medium without phenol red according to the manufacturer's instructions. Cells were then treated with compounds as indicated for 1 hour. End-point fluorescence was measured in a fluorescence microplate reader (Syneregy H1, Bio-Tek, Winooski, VT) at 485 nm excitation and 535 nm emission wavelengths.

In a further series the test system is IRGOV-1. The series is described as follows: MTT cytotoxicity, ovarian cancer cell line IRGOV-1. The class given is cell-based. As to conditions: 72 hours. As to the method: (§1) Finally, a comparison study of the cytotoxicity of Re-Phen and phenformin in a panel of ovarian cancer cell lines by MTT assay after a 72 hour incubation period was conducted. Ovarian cells were seeded at 5000 cells/well in 96-well plates overnight, and treated with Re-Phen or phenformin in different concentrations (from 4.57×10^−4 mM to 1.0 mM in 3-fold increase) at 37° C. for 72 hours. Cell viability was measured using the MTT assay. The absorption at 590 nm was measured at microplate reader (SpectraMax, Molecular Device, San Diego, CA) to quantify cell numbers. The proportion of cells was normalized to that of untreated cells and expressed as mean±standard error of the mean (SEM) (n=5-6). The resulting reduced viability with half-maximal inhibitory concentration (IC50) values of mM were calculated by a sigmoidal dose-response (variable slope) curve-fitting using GraphPad Prism software. The data are shown in FIG. 19A (Re-Phen) and FIG. 19B (phenformin). […] In fact, Re-Phen is shown to display >2,000-fold and >5,000-fold higher cytotoxicity against OVACAR-8 and SKOV3 (Table 2) human ovarian cancer cell lines, respectively.

The nature of series [3]: log P from octanol and PBS pH 7.4. The class given is physicochemical.
The test system of series [4] is PDAC cells. In words: JC-10 mitochondrial membrane potential assay. Type of series: cell-based. Particulars: JC-10 microplate assay kit. As to the method: The fluorescent intensities for J-aggregates (Ex/Em=540/590 nm) and monomeric forms (Ex/Em=490/525 nm) of JC-10 were measured with a microplate reader. Fluorescence intensity ratio measured at 525 nm/590 nm represents the change of mitochondrial membrane potential. Data are presented as mean±SD (n=4). *p<0.05; **p<0.01; ***p<0.001.
Both Re-Phen and phenformin altered the mitochondrial functions and metabolic state of PDAC cells. The fluorescent intensities for both monomeric forms (Ex/Em=490/525 nm) and J-aggregates (Ex/Em=540/590 nm) of JC-10 change upon mitochondrial membrane polarization. Thus, an increase in the ratio of fluorescence intensities measured at 525 nm (monomeric form) over 590 nm (aggregates) represents a decrease in mitochondrial membrane potential.

In the next series the test system is MiaPaca-2 PDAC cells. The series is described as follows: MTT cytotoxicity, pancreatic cancer cell line MiaPaca-2. Type of series: cell-based. Particulars: for IC50: MTT, 72 h. As to the method: To determine cytotoxicity of Re-Phen and Phenformin, different cell lines were exposed to different concentrations of the compounds and their viabilities were followed over time. […] Cell viability was measured using the MTT assay. The absorption at 590 nm was measured with a microplate reader (SpectraMax, Molecular Device, San Diego, CA) to quantify cell numbers. The proportion of cells was normalized to that of untreated cells and expressed as mean±standard error of the mean (SEM) (n=6). The half-maximal inhibitory concentration (IC50) values were calculated by a sigmoidal dose-response (variable slope) curve-fitting using GraphPad Prism software.

The subject of a further series is OVCAR4. In words: MTT cytotoxicity, ovarian cancer cell line OVCAR4. Type of series: cell-based. As to the method:
as §1

For the next series, the system named is Kras*. The series is described as follows: MTT cytotoxicity, pancreatic cancer cell line Kras*. The class given is cell-based, murine. As to conditions: 72 h. As to the method: To determine cytotoxicity of Re-Phen and Phenformin, different cell lines were exposed to different concentrations of the compounds and their viabilities were followed over time. Pancreatic cells were seeded in 96-well plates (5000 cells/well) overnight, and treated with Re-Phen (FIG. 13A) or phenformin (FIG. 13B) in concentrations ranging from 4.57×10−4 mM to 1.0 mM at 37° C. for 72 h. Cell viability was measured using the MTT assay. The absorption at 590 nm was measured with a microplate reader (SpectraMax, Molecular Device, San Diego, CA) to quantify cell numbers. The proportion of cells was normalized to that of untreated cells and expressed as mean±standard error of the mean (SEM) (n=6). The half-maximal inhibitory concentration (IC50) values were calculated by a sigmoidal dose-response (variable slope) curve-fitting using GraphPad Prism software.

The test system of series [5] is normal cells (RAW264.7, NIH3T3, hTERT-HPNE). In words: MTT cytotoxicity against normal cells. Type of series: cell-based. As to conditions: 72 hours. The method, then: Next, RAW264.7 (FIG. 14A), NIH3T3 (FIG. 14B), or hTERT-HPNE (FIG. 14C) cells were seeded in 96-well plates (5000 cells/well) overnight, and treated with Re-Phen or phenformin in concentrations ranging from 4.57×10−4 mM to 1.0 mM at 37° C. for 72 hours. Cell viability was measured using the MTT assay. The proportion of cells was normalized to that of untreated cells and expressed as mean±standard error of the mean (SEM) (n=5). The half-maximal inhibitory concentration (IC50) values were calculated by a sigmoidal dose-response (variable slope) curve-fitting using GraphPad Prism software.

For another series, the system named is OVCAR8. The series is described as follows: MTT cytotoxicity, ovarian cancer cell line OVCAR8. The class given is cell-based, human. The method, then: as §1
The test system of a further series is SKOV3. The series is described as follows: MTT cytotoxicity, ovarian cancer cell line SKOV3. The class given is cell-based, human. The method, then: as §1
Series [6] concerns PDAC cells (Kras*, MiaPaca-2). In words: Annexin V/PI flow cytometry cell death. Type of series: cell-based. As to conditions: 250 μM, 24 hours, Kras* and MiaPaca-2 cell lines. An excerpt:
Vehicle (DMSO) treated cells were used as a control.
AMPK is a key enzyme that becomes activated under nutrient stress. Annexin V/PI double staining kit was used to detected cell death in flow cytofluorimetric analyses. […] In Kras* cell line, cells died largely of necrosis; in MiaPaca-2 cell line, cells died mostly of apoptosis.

[7] abbreviates: Re-Phen versus phenformin, Table 2.

SMILES strings stand for the structures. Bounds are passed on as bounds.

Turning to `[H]/N=C(/N)N/C(=N/[H])NCCc1ccccc1` [Phenformin, N-phenylethyl biguanide, reference compound], in the series on PDAC cells [1], the “mitochondria respiration (OCR)” value was “suppressed mitochondria respiration”. Further, the “level of reactive oxygen species (ROS)” value with PDAC cells [2] was “increased the level of ROS”. Moreover, the IC50 came out at 380 µM with IRGOV-1; 13600 µM in the series on MiaPaca-2 PDAC cells (Homo sapiens, MIA PaCa-2); 2430 µM in the series on OVCAR4 (Homo sapiens, OVCAR-4, 72 hours); 750 µM in the series with Kras* (Mus musculus, Pancreatic cancer cell). This compound also came in with a logP in [3] (pH 7.4) of -0.72 ± 0.02. Moreover, the mitochondrial membrane potential entry in the series on PDAC cells [4] is “reduced mitochondrial membrane potential”.

Regarding `N=C(N)NC(=N)NCCc1ccccc1.[C-]#[O+].[C-]#[O+].[C-]#[O+].[Re+]` [Re-Phen], the “mitochondria respiration (OCR)” value in the series on PDAC cells [1] is “suppressed mitochondria respiration”. Further, in [5], the “cytotoxicity against normal cells” value is on record as “generally less cytotoxic than phenformin”. Moreover, the “level of reactive oxygen species (ROS)” value in the series on PDAC cells [2] was “reduced the level of reactive oxygen species (ROS)”. In addition, the “ROS levels in MiaPaca-2 cells” value in the series on PDAC cells [2] (MiaPaca-2 cells, DCFDA, treated 1 hour, FIG. 16) was “reduced ROS levels”. Besides, the IC50 in the series with IRGOV-1 stood at 420 µM; in the series with MiaPaca-2 PDAC cells, 39 µM; with OVCAR8 (MTT, 72 hours), 110 µM; in the series on OVCAR4 (72 hours) it was 390 µM; in the series on SKOV3 (MTT, 72 hours), 35 µM; in the series on Kras* it was 230 µM. Moreover, the “log P” value in [3] (octanol and phosphate-buffered saline (PBS) at pH 7.4) amounted to 1.07±0.08. Also, the mitochondrial membrane potential result in the series on PDAC cells [4] is given as “reduced mitochondrial membrane potential”. Moreover, the “fold higher cytotoxicity against MiaPaca-2 PDAC cells” value with MiaPaca-2 PDAC cells (Re-Phen versus phenformin, Table 1) is recorded as “about 35 fold”. In the series on OVCAR8 (setting [7]), the “fold higher cytotoxicity against OVACAR-8” value is listed as > 2,000 fold. For the same compound, in the series on SKOV3 (setting [7]), the “fold higher cytotoxicity against SKOV3” value is on record as > 5,000 fold. Besides, the “induction of cell death” value in [6] is reported as “more potent than phenformin”.
